In patent US6825197B2, “Cyclic GMP-specific phosphodiesterase inhibitors” (Lilly ICOS LLC, priority 2000, dated 2004):

Legend:
recombinant human PDE5 = target: T1, recombinant human PDE5 (Homo sapiens, UniProt O76074); experiment: Inhibitory effect on cGMP-PDE (PDE5 inhibition, one-step assay); format: biochemical; conditions: in vitro test; human recombinant PDE5, 0.15 μM 8-[H3]-cGMP, 30 minutes incubation; read-out: IC50 values versus PDE5
T1 construct: host or cells: Saccharomyces cerevisiae strain BJ2-54 (ATCC 74465), described as an exemplary method
Protocol: The compounds of structural formula (I) were tested for an ability to inhibit PDE5. The ability of a compound to inhibit PDE5 activity is related to the IC50 value for the compound, i.e., the concentration of inhibitor required for 50% inhibition of enzyme activity. The IC50 value for compounds of structural formula (I) were determined using recombinant human PDE5.
The production of recombinant human PDEs and the IC50 determinations can be accomplished by well-known methods in the art. Exemplary methods are described as follows:
Phosphodiesterase activity of the preparations was determined as follows. PDE assays utilizing a charcoal separation technique were performed essentially as described in Loughney et al. (1996). […] The [32P]5′-AMP or [32P]5′-GMP then was quantitatively converted to free [32P] phosphate and unlabeled adenosine or guanosine by the action of snake venom 5′-nucleotidase. […] PDE enzyme was present in quantities that yield <30% total hydrolysis of substrate (linear assay conditions). […] After centrifugation (750×g for 3 minutes) to sediment the charcoal, a sample of the supernatant was taken for radioactivity determination in a scintillation counter and the PDE activity was calculated.
cGMP-PDE activity of compounds of the present invention was measured using a one-step assay adapted from Wells et al., Biochim. […]

Row | IC50 (recombinant human PDE5) [nM] | melting point [°C] | SMILES
1 | 3.9 | 284 to 289 | COc1ccc(CC(=O)N2CCN3C(=O)[C@H]4Cc5c([nH]c6ccccc56)[C@@H](c5ccc6c(c5)OCO6)N4C(=O)C3C2)cc1OC (stereo partly drawn) [Example 3, (5aR,12R)-12-Benzo(1,3)dioxol-5-yl-9-[2-(3,4-dimethoxyphenyl)ethanoyl]-5,5a,8,9, 10, 10a,12,13-octahydro-7H-6a,9,11a,13-tetraaza-indeno[1,2-b]anthracene-6,11-dione]
2 | 1.7 | 226 to 237 | O=C1[C@H]2Cc3c([nH]c4ccccc34)[C@@H](c3ccc4c(c3)OCO4)N2C(=O)C2CNCCN12 (mixture of isomers) [Example 1, (5aR,12R)-12-Benzo(1,3)dioxol-5-yl-5,5a,8,9,10,10a,12,13-octahydro-7H-6a,9,11a,13-tetraza-indeno[1,2-b]anthracene-6,11-dione]
